In US12404242B2, “Compositions and methods for making and using small molecules in the treatment of cancer” (Reglagene, Inc., priority 2021, dated 2025):
Converted amounts (≈) assume the structure as drawn. Like-named read-outs stand apart in the source and are kept apart here.

Tests used:
LN18 cells = experiment: Cell viability (AlamarBlue), LN18 glioma cells; type: cell-based; conditions: Homo sapiens, LN-18, 72 hours of treatment
Description: (§1) In another exemplary method, half maximal effective concentration (EC50) was determined for some compounds and their isomers as disclosed herein in a variety of human cancer cell lines. In brief, cells from two prostate cancer cell lines (LNCaP, 22RV1), one glioblastoma cell line (U87), one breast cancer cell line (MCF7), a glioma cell line (LN18), a normal prostate cell line (RWPE1), and a glioblastoma cell line (T98G) were plated in a multi-well plate. After 24 hours, one of the compounds herein was added to the well at increasing concentrations. After 72 hours of treatment, cell viability was assessed using AlamrBlue® (Invitrogen) and fluorescence was read using the CLARIOstar Plus Multilabel Plate Reader (BMG Labtech). Samples were normalized to no treatment controls. EC50 values were determined using GraphPad Prism.

[1] = Kinetic solubility in aqueous PBS buffer (HPLC-MS); type: physicochemical; conditions: kinetic from dmso stock, DMSO stock mixed with aqueous PBS buffer, filtered, read-out: Kinetic Solubility
Outline: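 A concentrated DMSO stock was mixed with aqueous PBS buffer and filtered. The filtrate was quantified against an HPLC-MS calibration curve.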

tubulin [2] = experiment: Tubulin polymerization assay; type: biochemical; conditions: 5 uM (FIG. 41A, 41C) or 1 uM (FIG. 41B)
Description: FIG. 41A-41C represent exemplary experiments illustrating inhibition of tubulin polymerization. FIG. 41A illustrates effects of compounds 19, 73, 86, 93 and 94 at 5 uM concentration. FIG. 41B illustrates effects of compounds 93, 94, 95 and 96 at 1 uM concentration.
FIG. 41C illustrates effects of compounds 73, 86, 87 and 88 at 5 uM concentration in accordance with certain embodiments of the present disclosure. Colchicine and vincristine are positive controls.
FIG. 42A-42B represent exemplary experiments illustrating inhibition of tubulin polymerization. FIG. 42A illustrates effects of compound 19 at 0.3, 1, 3 and 6 uM concentrations.
FIG. 42B illustrates effects of compound 73 at […] concentration in accordance with certain embodiments of the present disclosure. Colchicine and nocodazole are positive controls.
In another exemplary method, the effect of the compounds herein on tubulin polymerization was determined. FIG. 41A illustrates effects of compounds 19, 73, 86, 93 and 94 at 5 uM concentration, FIG. 41B illustrates effects of compounds 93, 94, 95 and 96 at 1 uM concentration, or FIG. 41C illustrates effects of compounds 87 and 88 at 5 uM concentration in accordance with certain embodiments of the present disclosure. Colchicine and vincristine are positive controls.
The dose dependent effect of compounds 19 and 73 on tubulin polymerization was also determined. FIG. 42A illustrates effects of compound 19 at 0.3, 1, 3 and 6 uM concentrations, and FIG. 42B illustrates effects of compound 73 at 0.1, 0.3, 1, 3 and 5 uM concentration in accordance with certain embodiments of the present disclosure. Colchicine and nocodazole are positive controls.

[3] = tested on: colchicine-site of tubulin; experiment: Fluorescence-based colchicine competitive binding assay; conditions: 50 uM (FIG. 43)
Description: FIG. 43 represent fluorescence-based colchicine competitive binding assay with compounds 19, 73 and 93 at 50 uM concentration in accordance with certain embodiments of the present disclosure. Nocodazole (NOC) is positive control.
(§2) Microtubule-targeting agents that bind at the colchicine-site of tubulin are of interest in antitumoral therapy due to their action as anti-mitotics. […] Nocodazole was used as a positive control. […] Colchicine (COL) and nocodazole (NOC) are positive controls while vincristine (VINC) is negative control.

[4] = tested on: colchicine binding site (tubulin) in MCF7 cell lines; experiment: N,N'-ethylene-bis(iodoacetamide) (EBI) competition assay in MCF7 cells; type: cell-based; conditions: MCF7 cell lines (FIG. 44)
Text: FIG. 44 represent N,N′-ethylene-bis(iodoacetamide) (EBI) competition assay with compounds 19, 73 and 93 in MCF7 cell lines showing binding of compounds in colchicine binding site in accordance with certain embodiments of the present disclosure. Colchicine (COL) and nocodazole (NOC) are positive controls while vincristine (VINC) is negative control.
as §2

[5] = tested on: LN18 glioblastoma cancer cells; experiment: Combination with Temozolomide, Bliss synergy in LN18 cells; type: cell-based; conditions: Temozolomide 0 to 1000 uM, compound 0.625 to 10 uM
Description: Synergy was calculated with the Bliss independence model. Compounds were combined at concentrations of 0 to 1000 uM for Temozolomide and 0.625 to 10 uM for compounds 19 and 59.

U87 glioblastoma cells = experiment: Combination with ionizing radiation in U87 cells; type: cell-based; conditions: 2 Gy ionizing radiation and 0.04-0.3 uM compound; versus ionizing radiation alone
tubulin [6] = experiment: Tubulin polymerization assay; type: biochemical; conditions: compound 19 at 0.3, 1, 3 and 6 uM; compound 73 at 0.1, 0.3, 1, 3 and 5 uM
U87 cells = experiment: Cell viability (AlamarBlue), U87 glioblastoma cells; type: cell-based, human; conditions: Homo sapiens, U-87 MG, 72 h, 72 hours of treatment
Outline: (§3)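 EC50 from AlamarBlue fluorescence after 72 h compound exposure at rising concentrations; readings normalized to no-treatment wells. Compound added 24 h post-plating.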

T98G cells = experiment: Cell viability (AlamarBlue), T98G glioblastoma cells; type: cell-based; conditions: Homo sapiens, 72 hours of treatment
Description: as §1

[7] = Plasma and brain levels in healthy mouse; type: in vivo; conditions: oral dose
Text: FIG. 53A-53B represent an exemplary experiment illustrating concentration of Compound 98 in plasma after oral dose (FIG. 53A); FIG. 53B represents levels of Compound 98 in plasma and brain tissue after administration to a rodent model in accordance with certain embodiments of the present disclosure.
FIG. 53A illustrates concentrations of Compound 98 in healthy mouse plasma over time. FIG. 53B and Table 9 illustrates concentrations of Compound 98 in healthy mouse plasma and brain at 0.5, 1 and 2 hrs.

22RV1 cells = experiment: Cell viability (AlamarBlue), 22RV1 prostate cancer cells; type: cell-based, human; conditions: Homo sapiens, 22Rv1, 72 h, 72 hours of treatment
Outline: as §3

[8] = tested on: 22Rv1 prostate cancer cells; experiment: Combination with Rabusertib, Bliss synergy in 22Rv1 cells; type: cell-based; conditions: Rabusertib 0 to 30 uM, compound 0.625 to 5 uM
Description: Synergy was calculated with the Bliss independence model. Compounds were combined at concentrations of 0 to 30 uM for Rabusertib and 0.625 to 5 uM for compounds 73 and 76.

[9] = brain, read-out: Healthy Brain concentration
[10] = plasma, read-out: Plasma concentration

Row | EC50 (LN18 cells) [µM] | solubility kinetic [1] [µM] | EC50 (U87 cells) [µM] | EC50 (T98G cells) [µM] | concentration at 0.5 h [7, 9] [ng/g] | concentration at 1 h [7, 9] [ng/g] | concentration at 2 h [7, 9] [ng/g] | concentration at 0.5 h [7, 10] [ng/mL] | concentration at 1 h [7, 10] [ng/mL] | concentration at 2 h [7, 10] [ng/mL] | EC50 (22RV1 cells) [µM] | Compound | effect on tubulin polymerization (tubulin [2]) | colchicine competitive binding assay result [3] | EBI competition assay result [4] | Bliss Synergy value, combination with Temozolomide ([5]; LN18 cells, Bliss independence model) | effect of combination with Temozolomide on cancer cell viability [5] | cancer cell viability with ionizing radiation plus compound (U87 glioblastoma cells) | dose dependent effect on tubulin polymerization (tubulin [6]) | Bliss Synergy value, combination with Rabusertib ([8]; 22Rv1 cells, Bliss independence model) | effect of combination with Rabusertib on cancer cell viability [8]
1 | 0.83 | 5.68 (≈ 2.21 µg/mL) |  |  |  |  |  |  |  |  |  | COC1CC(C(=O)NC(=O)Nc2ccc(Oc3ccc(Cl)cn3)c(C)c2)C1 (stereo not shown) [Compound 19, N-((4-((5-chloropyridin-2-yl)oxy)-3-methylphenyl)carbamoyl)-3-methoxycyclobutane-1-carboxamide] | significantly inhibit tubulin polymerization | significantly inhibit microtubule assembly | inhibitors of EBI binding | 29.5 | synergistic decrease in cancer cell viability | reduced cancer cell viability relative to cells treated with ionizing radiation alone | significantly inhibit tubulin polymerization in a dose dependent manner |  | 
2 | 0.07 |  | 0.02 | 0.0189 | 230 | 234 | 257 | 424 | 490 | 399 |  | COC12CC(C(=O)NC(=O)Nc3ccc(C)c(Oc4ccccn4)c3)(C1)C2 [Compound 98, 3-methoxy-N-((4-methyl-3-(pyridin-2-yloxy)phenyl)carbamoyl)bicyclo[1.1.1]pentane-1-carboxamide] |  |  |  |  |  |  |  |  | 
3 |  | 8.9 (≈ 3.22 µg/mL) | 0.03 |  |  |  |  |  |  |  |  | COC1CC(C(=O)NC(=O)Nc2ccc(C)c(Oc3nccs3)c2)C1 (stereo not shown) [Compound 93, 3-methoxy-N-((4-methyl-3-(thiazol-2-yloxy)phenyl)carbamoyl)cyclobutane-1-carboxamide] | significantly inhibit tubulin polymerization | significantly inhibit microtubule assembly | inhibitors of EBI binding |  |  |  |  |  | 
4 |  |  | 0.12 |  |  |  |  |  |  |  | 0.068 | COC1CC(C(=O)NC(=O)Nc2cc(C)c(Oc3ncc(Cl)cn3)c(F)c2)C1 (stereo not shown) [Compound 73, N-((4-((5-chloropyrimidin-2-yl)oxy)-3-fluoro-5-methylphenyl)carbamoyl)-3-methoxycyclobutane carboxamide] | significantly inhibit tubulin polymerization | significantly inhibit microtubule assembly | inhibitors of EBI binding |  |  |  | significantly inhibit tubulin polymerization in a dose dependent manner | 20.7 | synergistic decrease in cancer cell viability
